Our source for the pharmacokinetic characteristic values is patent US20220233472A1, “VETERINARY BROMHEXINE HYDROCHLORIDE SOLUBLE POWDER, PREPARATION METHOD AND USE THEREOF” (Qingdao Agricultural University, priority 2021, published 2022).

Where a name gives a salt, the structure may show the parent alone.

The nature of the data set: Pharmacokinetic tests of bromhexine hydrochloride soluble powder in chickens. The format is in vivo. Particulars: oral, soluble powder at 50, 150 and 250 mg/kg·bw. The procedure: Pharmacokinetic tests of bromhexine hydrochloride soluble powder in chickens were carried out based on three administration dosages of 50 mg/kg·bw, 150 mg/kg·bw and 250 mg/kg·bw.

Consider `CN(Cc1cc(Br)cc(Br)c1N)C1CCCCC1` [bromhexine, Bromhexine hydrochloride], for which the pharmacokinetic characteristic result is “linear pharmacokinetic characteristic”.
